Test results published in patent US9556242B2, “Method for regulating circadian rhythms” (ANYGEN CO., LTD., priority 2011, dated 2017).
“Also recorded” adds a separate entry of the source.

System: per2 promoter
Test: Per2-luciferase activity in cultured mouse brain sections including SCN after NQ peptide treatment
Format: cell-based
Conditions: for phase-advance effect on Per2 circadian activity: NQ peptide forms and mutants treated to incubated brain section including SCN (FIG. 15); for effects in the Per2 phase advance or delay: 100 nM for 4 hours; for phase changes / activity period of per2 promoter: treated at the highest point of per2 activity; for phase changes / activity period of per2 promoter / free-running period after treatment: 5 μM (FIG. 12); for free-running period after treatment: treated at the lowest point of per2 activity
Procedure: Animals used in this experiment were transgenic mice in which the construct inserted Luciferase gene behind per2 promoter was knocked-in. The mice were sacrificed. The brain was speedily isolated and sectioned in a thickness of 400 μm including SCN. The mouse brain tissue sections were incubated in media containing 1% penicillin/streptomycin antibiotics, 25% Horse Serum, 25% Hank's Buffered Salt Solution (HBSS), 50% Minimum Essential Medium (MEM) and 0.3 mM luciferin. At 5 days after the incubation, the synthetic NQ peptides were treated with 5 μM of final concentration. Then, luciferase activity derived from changes of per2 promoter activities was observed.
The NQ peptides were treated with 100 nM of the concentration at 2, 6, 10, 14, 20 and 22 hours after the peak in Per2 activity with the 24-hour intervals wave. The treatment was maintained 4 hours. Then, the media were changed.
The NQ peptides were treated with 2 nM, 20 nM, 200 nM and 2000 nM of the concentrations for 4 hours to the sections at 10 hours after the peak in Per2 activity. Then, the media were changed to the original media (50% minimum essential medium, 25% gey's balanced salt solution, 25% horse serum, 36 mM glucose, and 100 units/ml aerosolized antibiotics) containing 0.3 mM luciferin to limit drug duration of the NQ peptide.
To achieve this, the present inventors have synthesized mutants: deletion mutant sequencing from first Asn to tenth Leu among the amino acid sequences as set forth in SEQ ID NO:2; optical isomer mutant 1 in which the second Trp residue is modified to D-form Trp; and optical isomer mutant 2 in which the eleventh Lys residue is modified to D-form Lys.
The NQ peptide as set forth in SEQ ID NO:2 or 3, or the NQ peptide mutants were respectively treated to the incubated brain section including SCN. Particularly, the NQ peptide as set forth in SEQ ID NO:2 found in humans and mouse was simultaneously treated with the a-NQ-S antibody as neutralization substance to elucidate those specific effects with more accuracy. […] Therefore, it could be understood that the carboxyl-terminus sequencing from the eleventh Lys residue to Gln as well as the second Trp residue and the eleventh Lys residue in the amino acid sequence of NQ peptide as set forth in SEQ ID NO:2 are very important in physiological activity.

effects in the Per2 phase advance or delay (treated at 2 hours after the peak in Per2 activity (FIG. 13)) | effects in the Per2 phase advance or delay (treated at 6 hours after the peak in Per2 activity (FIG. 13)) | effects in the Per2 phase advance or delay (treated at 10 hours after the peak in Per2 activity (FIG. 13)) | effects in the Per2 phase advance or delay (treated at 14 hours after the peak in Per2 activity (FIG. 13)) | effects in the Per2 phase advance or delay (treated at 20 hours after the peak in Per2 activity (FIG. 13)) | highest effect time (after peak in Per2 activity) (100 nM, phase-dependent treatment (FIG. 13)) [h] | concentration range in which Per2 expression period was advanced proportionally (4 hours treatment at 10 hours after the peak in Per2 activity (FIG. 14)) [nM] | free-running period advanced by (synthetic NQ peptide treated at the lowest point in Per2 phase, mouse brain section (FIG. 12)) | phase changes / activity period of per2 promoter | phase changes / activity period of per2 promoter (listed as synthetic NQ peptide) | highest concentration of the NQ peptide (phase-advance effect) (treated at the lowest point in Per2 phase (FIG. 14)) [nM] | free-running period after treatment | free-running period after treatment (listed as synthetic NQ peptide) | activity period of per2 promoter (treated at the point in which per2 shows the highest activity, 5 μM) | Substance | phase-advance effect on Per2 circadian activity | effects in the Per2 phase advance or delay (treated at 22 hours after the peak in Per2 activity (FIG. 13)) | dose dependence of Per2 phase-advance effect (2, 20, 200, 2000 nM for 4 hours at 10 hours after the peak (lowest point) in Per2 activity (FIG. 14)) | phase-advance effect on Per2 circadian activity (listed as NQ peptide as set forth in SEQ ID NO:2)
– | – | – | – | – | – | – | – | – | – | – | – | – | – | NQ peptide as set forth in SEQ ID NO:3: form of the NQ peptide found in rat; His residue at the carboxyl-terminus instead of the amide group (NWTPQAMLYLKGAQGH; NQ Peptide 3) | caused the advance effects in circadian activity; also recorded: changed the Per2 phase; also recorded: showed phase-advance effects of Per2 | – | – | –
negligible or barely shown | negligible or barely shown | significantly advanced | significantly advanced | significantly advanced | 10 | 20 to 200 | approximately 2.80 hours | not changed | negligible or barely shown | 200 | approximately 22.3 hours | approximately 22.87 hours | approximately 24 hours | NWTPQAMLYLKGAQ-NH2 [NQ peptide] | – | negligible or barely shown; also recorded: negligible | advanced proportionally to the concentration; also recorded: dose-dependent manner | caused the advance effects in circadian activity; also recorded: changed the Per2 phase; also recorded: showed phase-advance effects of Per2
